Test results: patent US10688105B2, “Method of treating refractory rheumatoid arthritis associated with p53 mutation” (priority 2017, dated 2020)

Key:
RAFLS [1] = assay: Annexin V flow cytometry cell death in RAFLS; assay type: cell-based; details: 24 h; for celastrol-mediated autophagic cell death with inhibitor: 2 μM celastrol with 5 mM 3-MA or 5 μM BAPTA/AM
Method: (§1) Annexin V flow cytometry analysis was applied. Cell death and viability are measured using an Annexin V staining kit (BD Biosciences, San Jose, Calif., USA). Briefly, RAFLS are treated with 0-2 μM celastrol for 24 h. Cells are then harvested and analysed by multiparametric flow cytometry using FITC-Annexin V and Propidium iodide staining (BD Biosciences, San Jose, Calif., USA) according to the manufacturer's instructions. Flow cytometry is then carried out using a FACSCalibur flow cytometer (BD Biosciences, San Jose, Calif., USA). Data acquisition and analysis is performed with CellQuest (BD Biosciences, San Jose, Calif., USA). Data are obtained from three independent experiments.
as §1, with “performed.” for “applied.”, “1 or 2” for “0-2”, “celastrol in the presence or absence of autophagic inhibitor, 3-MA or calcium chelator, BAPTA/AM (BM)” for “celastrol”

RASFs [2] = assay: Cytosolic Ca2+ dynamic, FLIPR Calcium 6 Assay Kit in RASFs; assay type: cell-based, human; details: for celastrol-induced calcium dynamic change under co-/pre-treatment: 1 μM celastrol with 5 μM Compound C or 1 μM thapsigargin; for calcium dynamic change: 1 μM, compound alone
Method: Intracellular cytosolic Ca^2+ dynamic was measured using the FLIPR Calcium 6 Assay Kit (Molecular Devices) according to the manufacturer's instructions. In brief, RASFs were plated at a density of 10000 cells per well in black wall/clear bottom 96-multiwell plates from Costar (Tewksbury, Mass., USA) and cultured for 24 h before treatment. After that, calcium 6 reagent was added directly to cells, and cells were incubated for an additional 2 h at 37° C. and 5% CO2. Indicated concentrations of celastrol or thapsigargin were then added to the wells and immediately subjected to data acquisition on the SpectraMax Paradigm Multi-Mode Microplate Reader (Molecular Devices) at room temperature using a 1-s reading interval throughout the experiments.

RAFLS [3] = assay: Endogenous LC3-II puncta (autophagy) in RAFLS; assay type: cell-based, human; details: 24 h
Method: RAFLS were treated with DMSO as a control group or celastrol at a concentration of 0.25, 0.5, 1 or 2 μM for 24 h.
(§2) Data from the bar chart represented the mean values±S.D. of three independent experiments; error bars, S.D. ***, P<0.001.
(§3) In order to determine endogenous expression of LC3-II, RASFs or RAFLS treated with indicated time and concentrations of celastrol (Cel) were fixed and visualised by fluorescence microscopy after staining with an LC3-II antibody followed by TRITC-conjugated anti-mouse secondary antibody.
To determine the endogenous expression of LC3-II, RAFLS were treated with indicated concentrations of celastrol in the presence or absence of BAPTA/AM (BM) for 24 h. The cells were then fixed and visualised by fluorescence microscopy after staining with an LC3-II antibody followed by TRITC-conjugated anti-mouse secondary antibody.

RASFs [4] = assay: LC3 conversion Western blot in RASFs; assay type: cell-based, human; details: 2 μM celastrol, 10 μM BAPTA/AM
Method: In a detection of autophagic marker protein LC3 conversion, after celastrol treatments with or without the calcium chelator, BAPTA/AM (BM), RASFs were harvested and lysed in RIPA buffer (Cell Signaling Technologies Inc. (Beverly, Mass.). The cell lysates were then resolved by SDS-PAGE. After electrophoresis, the proteins from SDS-PAGE were transferred to nitrocellulose membrane which was then blocked with 5% non-fat dried milk for 60 minutes. The membrane was then incubated with LC3 primary antibodies (1:1000) in TBST overnight at 4° C. After that, the membrane was further incubated with HRP-conjugated secondary antibodies for 60 minutes. Finally, protein bands were visualized by using the ECL Western Blotting Detection Reagents (Invitrogen, Paisley, Scotland, UK).

[5] = tested on: adjuvant-induced arthritis (AIA) rat model; assay: Adjuvant-induced arthritis (AIA) rat model; details: AIA rats; for microCT of hind joints: swollen joints and cartilage destruction: left hind paw
[6] = tested on: P-gp-over-expressing RAFLS; assay: Annexin V flow cytometry, celastrol with methotrexate in RAFLS; assay type: cell-based, human; details: celastrol 0.1-0.2 μM with 450 μM MTX, 24 h
Method: Celastrol-induced cell death was measured by flow cytometry analysis after annexin V staining.
as §1, with “performed.” for “applied.”, “Briefly, RAFLS are treated with 0-2 μM celastrol for 24 h.” left out

RAFLS p53 N239S = assay: MTT cytotoxicity assay, RAFLS transfected with p53 mutant N239S; assay type: cell-based, human
Method: (§4) Cytotoxicity Assays were performed. […] Data were obtained from triplication independent experiments.

P-gp ATPase = target: T1, P-gp ATPase (Homo sapiens, UniProt P08183); assay: Pgp-Glo assay of P-gp ATPase activity; assay type: biochemical; details: celastrol 0.5, 1, 2 μM with 200 μM verapamil and ATP, 1 hour, 37° C.
T1 construct: purchased Promega, Madison, Wis
Method: The luminescence was then measured by P-gp Glo™ Assay System. Change in luminescence (RLU) represented the activity of P-gp, whereas the activity shown in the control group indicated the basal P-gp ATPase activity.
The luminescence of the sample reflects the ATP level in the sample, which is negatively correlated with the activity of P-gp ATPase and was recorded using the SpectraMax Paradigm Multi-Mode Microplate Reader (Molecular Devices). DMSO-treated activities are expressed as the percentage of basal activity. By comparing basal activity to test compound-treated activities, the compounds can be ranked as stimulating, inhibiting, or having no effect on basal P-gp ATPase activity.

in vitro = details: human
Method: (§5) All test compounds were dissolved in DMSO at final concentrations of 50 mmol/L and stored at −20° C. before use. Cytotoxicity was assessed using the 3-(4, 5-dimethylthiazol-2-yl)-2, 5-diphenyltetrazolium bromide (MTT) (5.0 mg/ml) assay. Briefly, 4×10^3 RAFLS cells overexpressed with P-gp were seeded per well in 96-well plates before drug treatment. […] Cells without drug treatment were used as control. Subsequently, MTT (10 μL) was added to each well and incubated at 37° C. for 4 hours followed by the addition of 100 μL solubilization buffer (10% SDS in 0.01 mol/L HCl) and overnight incubation. A570 nm was determined from each well on the next day. The percentage of cell viability was calculated using the following formula: Cell viability (%)=Atreated/Acontrol×100. Data were obtained from triplication independent experiments.

[7] = MTT cytotoxicity assay, RAFLS; assay type: cell-based; details: human
From the text: Data were obtained from triplication independent experiments.

[8] = tested on: RAFLS p-gp over expression; assay: MTT cytotoxicity assay, RAFLS overexpressed with P-gp; details: RAFLS p-gp over expression vs RAFLS
Method: as §5

P-gp = assay: Rho123 exclusion assay in P-gp overexpressing RAFLS; assay type: cell-based, human; details: relatively low doses of celastrol
Method: At the end of the incubation, the accumulation of Rho123 was stopped by washing the cells five times with ice-cold PBS. After cell centrifugation, cell pellets were resuspended in 400 μL PBS. […] All data acquisition and analyses were performed with CellQuest (BD Biosciences, San Jose, Calif., USA) in triplicate in three independent experiments, and the results were shown as the mean of fluorescence intensity.

RAFLS p53 WT = assay: MTT cytotoxicity assay, RAFLS Ctrl p53 WT; assay type: cell-based, human
Method: as §4

RASFs [9] = assay: Endogenous LC3-II puncta (autophagy) in RASFs; assay type: cell-based, human; details: 1 μM, 10-240 min
Method: RASFs were treated with DMSO as a control group or 1 μM celastrol for 10, 30, 60 or 240 min. The cells were then fixed and visualized for endogenous LC3-II expression by fluorescence microscopy using LC3-II antibody plus TRITC-conjugated anti-mouse secondary antibody.
as §2, §3

RAFLS [10] = assay: Cytosolic calcium level by Fluo-3 flow cytometry in RAFLS; assay type: cell-based, human; details: 1 μM 0-24 h, 0.1-2 μM 4 h
Method: Flow cytometry analysis was performed to determine the cytosolic calcium level. Intracellular free calcium was measured by a fluorescent dye, Fluo-3. Briefly, RAFLS were washed twice with DMEM media after Celastrol treatment (1 μM) for 4 h. Then cell suspensions were incubated with 5 μM Fluo-3 at 37° C. for 30 min. Then the cells were washed twice with HBSS. After re-suspended cell samples were subjected to FACS analysis. At least 10,000 events were analyzed.

RAFLS p53 R213* = assay: MTT cytotoxicity assay, RAFLS transfected with p53 mutant R213*; assay type: cell-based, human
Method: as §4

[11] = Homo sapiens, RA-FLS, 72 h, read-out: mean IC50
[12] = celastrol 1 and 2 mg/kg i.p., 36 days, vs vehicle-treated
[13] = RAFLS cells overexpressing P-gp

T1 sequence (P08183 whole entry): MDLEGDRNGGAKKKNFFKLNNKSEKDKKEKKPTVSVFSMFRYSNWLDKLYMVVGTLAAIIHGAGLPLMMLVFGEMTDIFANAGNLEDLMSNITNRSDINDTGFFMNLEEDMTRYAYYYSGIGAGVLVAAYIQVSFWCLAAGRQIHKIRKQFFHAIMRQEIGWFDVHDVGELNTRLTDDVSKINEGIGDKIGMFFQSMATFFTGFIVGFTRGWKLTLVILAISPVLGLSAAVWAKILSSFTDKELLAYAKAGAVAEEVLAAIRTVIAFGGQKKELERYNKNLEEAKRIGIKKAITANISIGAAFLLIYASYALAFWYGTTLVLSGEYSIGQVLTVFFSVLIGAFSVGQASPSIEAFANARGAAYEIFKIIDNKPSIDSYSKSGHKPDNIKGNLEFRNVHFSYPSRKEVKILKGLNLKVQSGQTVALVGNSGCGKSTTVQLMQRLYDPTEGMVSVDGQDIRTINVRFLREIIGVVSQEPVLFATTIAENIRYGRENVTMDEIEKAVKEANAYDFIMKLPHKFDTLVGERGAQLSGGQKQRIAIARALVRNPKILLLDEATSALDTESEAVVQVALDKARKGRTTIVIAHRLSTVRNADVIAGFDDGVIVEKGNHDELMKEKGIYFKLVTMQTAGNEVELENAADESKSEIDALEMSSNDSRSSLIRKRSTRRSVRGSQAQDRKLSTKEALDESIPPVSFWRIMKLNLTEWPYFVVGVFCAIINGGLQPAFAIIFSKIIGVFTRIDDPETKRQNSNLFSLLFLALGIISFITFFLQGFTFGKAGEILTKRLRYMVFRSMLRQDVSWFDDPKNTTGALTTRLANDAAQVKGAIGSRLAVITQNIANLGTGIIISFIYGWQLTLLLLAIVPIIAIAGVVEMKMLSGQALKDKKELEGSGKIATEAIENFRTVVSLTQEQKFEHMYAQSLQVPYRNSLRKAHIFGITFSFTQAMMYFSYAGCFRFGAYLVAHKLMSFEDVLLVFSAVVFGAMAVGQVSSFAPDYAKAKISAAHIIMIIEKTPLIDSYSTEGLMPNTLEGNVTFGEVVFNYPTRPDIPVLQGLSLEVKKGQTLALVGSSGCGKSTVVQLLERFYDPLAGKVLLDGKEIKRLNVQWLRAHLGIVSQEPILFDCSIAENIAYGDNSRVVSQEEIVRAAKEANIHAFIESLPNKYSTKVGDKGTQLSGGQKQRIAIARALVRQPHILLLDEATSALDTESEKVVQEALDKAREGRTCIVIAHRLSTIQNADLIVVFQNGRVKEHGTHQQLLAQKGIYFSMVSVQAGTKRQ

Question: For Cn1cnc(N)c2ncnc1-2 [3-MA, 3-methyladenine], which “celastrol-mediated autophagic cell death with inhibitor” value (RAFLS [1]) is on record?
Answer: The value was “completely abolished”.

Question: For c1cc(-c2cnn3cc(-c4ccc(OCCN5CCCCC5)cc4)cnc23)ccn1 [AMPK inhibitor], which “celastrol-induced calcium dynamic change under co-/pre-treatment” value (RASFs [2]) is on record?
Answer: Its value is “no inhibitory effect”.

Question: Which results are given for CC(=O)OCOC(=O)CN(CC(=O)OCOC(C)=O)c1ccccc1OCCOc1ccccc1N(CC(=O)OCOC(C)=O)CC(=O)OCOC(C)=O [BAPTA/AM, reference compound]?
Answer: celastrol-induced endogenous LC3-II puncta formation with co-treatment (RAFLS [3]; 1 μM celastrol, 10 μM BAPTA/AM): dramatically suppressed; celastrol-mediated autophagic cell death with inhibitor (RAFLS [1]): completely abolished; LC3-II conversion with co-treatment (RASFs [4]): inhibited LC3-II conversion; anti-arthritic effect of celastrol with calcium chelator ([5]; celastrol 1 mg/kg + BAPTA/AM 3.5 mg/kg): retarded the anti-arthritic effect of celastrol

Question: What does the source list for CC1=C(O)C(=O)C=C2C1=CC=C1[C@@]2(C)CC[C@@]2(C)[C@@H]3C[C@](C)(C(=O)O)CC[C@]3(C)CC[C@]12C [Celastrol, celastrol]?
Answer: autophagy induction, endogenous LC3-II puncta (RAFLS [3]; 0.25-2 μM): dose-dependent autophagy induction; cell death (cytotoxicity), annexin V (RAFLS [1]; 0.25-2 μM): dose-dependent cytotoxicity; MTX-mediated cell death (sensitization) [6]: potentiating the toxicity of MTX; calcium dynamic change (RASFs [2]): stimulated relative weak calcium dynamic; IC50 (RAFLS p53 N239S; [11]): 1.01 µM; Resistant factor, RF (RAFLS p53 N239S; RAFLS p53 N239S vs p53 WT): RF: 1.01; verapamil-activated P-gp activity (P-gp ATPase): directly suppresses the activated form of P-gp in dose-dependently manner; IC50 at 72 h (in vitro): 1.45 µM; IC50 at 72 h [7]: 1.3 µM; Resistant Factor [8]: 1.12; Rho123 accumulation in P-gp overexpressing RAFLS (P-gp): gradually increased Rho123 accumulation in a dose-dependent manner; IC50 (RAFLS p53 WT; [11]): 0.996 µM; Resistant factor, RF (RAFLS p53 WT; RAFLS Ctrl p53 WT (reference)): RF: 1; erythrocyte sedimentation rate (ESR) [5]: down-regulated; body weight or organ weight ([5]; 36 days): without impairment; arthritic scores [5, 12]: significantly reduced; hind paw volume [5, 12]: significantly reduced; microCT of hind joints: swollen joints and cartilage destruction [5]: markedly improved; autophagy induction, endogenous LC3-II puncta (RASFs [9]): induced autophagy in time-dependent manner; calcium mobilization (Fluo-3) (RAFLS [10]): time and dose-dependently disturbs calcium homeostasis; IC50 (RAFLS p53 R213*; [11]): 0.722 µM; Resistant factor, RF (RAFLS p53 R213*; RAFLS p53 R213* vs p53 WT): RF: 0.72

Question: Which IC50 at 72 h (in vitro) does the source give for COc1cc2c(c(OC)c1OC)-c1ccc(OC)c(=O)cc1[C@@H](NC(C)=O)CC2 [Colchicine, colchicine] here?
Answer: The IC50 at 72 h was 46 µM.

Question: What about the IC50 at 72 h [7] of the same compound?
Answer: Its IC50 at 72 h is 11.3 µM.

Question: What about the “Resistant Factor” value [8] of the same compound?
Answer: Its value is 4.07.

Question: With C[C@@H]1C[C@H]2[C@@H]3CCC4=CC(=O)C=C[C@]4(C)[C@@]3(F)[C@@H](O)C[C@]2(C)[C@@]1(O)C(=O)CO [Dexamethasone, dexamethasone] as the compound, how does the IC50 at 72 h (in vitro; [13]) read?
Answer: Its IC50 at 72 h is greater than 2000 µM.

Question: And the IC50 at 72 h ([7]; RAFLS cells)?
Answer: The IC50 at 72 h was 600 µM.

Question: With CN(Cc1cnc2nc(N)nc(N)c2n1)c1ccc(C(=O)N[C@@H](CCC(=O)O)C(=O)O)cc1 [Methotrexate, methotrexate] as the compound, how does the IC50 at 72 h (in vitro; [13]) read?
Answer: Its IC50 at 72 h is 838 µM.

Question: And the IC50 at 72 h ([7]; RAFLS cells)?
Answer: The IC50 at 72 h was 219 µM.

Question: And the “Resistant Factor” value [8]?
Answer: The value was 3.83.

Question: What about the “erythrocyte sedimentation rate (ESR)” value [5] of the same compound?
Answer: The value was “down-regulated”.

Question: And the “microCT of hind joints: swollen joints and cartilage destruction” value [5]?
Answer: Its value is “markedly improved”.

Question: For C[C@]12C=CC(=O)C=C1CC[C@@H]1[C@@H]2[C@@H](O)C[C@@]2(C)[C@H]1CC[C@]2(O)C(=O)CO [Prednisolone, prednisolone], which IC50 at 72 h (in vitro; [13]) is on record?
Answer: The IC50 at 72 h was 216 µM.

Question: What about the IC50 at 72 h ([7]; RAFLS cells) of the same compound?
Answer: Its IC50 at 72 h is 123 µM.

Question: What does the source list for C/C=C(/C)C(=O)O[C@H]1C(C)=C2[C@H]([C@@H]1OC(=O)CCCCCCC)[C@@](C)(OC(C)=O)C[C@H](OC(=O)CCC)[C@@]1(O)[C@H]2OC(=O)[C@@]1(C)O [thapsigargin]?
Answer: celastrol-induced calcium dynamic change under co-/pre-treatment (RASFs [2]): extremely low response in calcium mobilization upon celastrol treatment; calcium dynamic change (RASFs [2]): significantly induced the calcium dynamic change
